Results taken from patent US20250302863A1, “USE OF THBS1 INHIBITOR FOR OVERCOMING DRUG RESISTANCE IN CANCER” (KOREA ADVANCED INSTITUTE OF SCIENCE AND TECHNOLOGY, priority 2022, published 2025).

Key:
Type in all cases: cell-based, Human
HCC827 = assay: Cell viability by APR-246 treatment concentration (IncuCyte, crystal violet); details: HCC827 p53-mutant lung cancer cells, 4 to 5 days, FIG. 7B
Description: (§1) Human lung cancer cell lines NCI-H1793, NCI-H2009, and HCC827 were purchased from the Korea Cell Line Bank (KCLB), and NCI-H1792 was purchased from the American Type Culture Collection (ATCC). NCI-H1793 and HCC827 were cultured in a RPMI 1640 medium supplemented with 10% fetal bovine serum (FBS) and antibiotics (100 U/ml penicillin, 100 μg/ml of streptomycin, and 0.25 μg/ml of Fungizone). NCI-H1792 and NCI-H2009 were cultured with the same supplements in a DMEM medium. All the cell lines were cultured at 37° C. in an incubator containing 5% carbon dioxide.
(§2) Dimethyl sulfoxide (DMSO) was purchased from Sigma-Aldrich and was used as a drug control. APR-246 and TGFβ1 protein were purchased from MedChemExpress (MCE). APR-246 was used by diluting 25 mg to a final concentration of 10 mM, and the cells were treated for 4 to 5 days when checking the cell viability and for 24 hours when performing a Western blot experiment. In addition, TGFβ1 at a concentration of 10 μg/ml was a TGF-beta pathway activator, and drug-sensitive cell lines were seeded and treated with 5 ng/ml of TGFβ1 24 hours later, and the cells were harvested 24 hours later.
(§3) Cells were seeded in a 96-well plate at 3 to 5×10^3 cells per well. A drug was then treated within 24 hours after seeding. After drug treatment, cell growth was recorded every 3 hours using IncuCyte ZOOM for 4 to 5 days. Cell viability was analyzed using IncuCyte ZOOM 2016A software. After 4 to 5 days, the cells were stained with 1% crystal violet for 30 minutes at room temperature and washed with distilled water to confirm the amount of viable cells.
(§4) The present inventors confirmed the cell viability according to the APR-246 drug treatment concentration for lung cancer cell lines NCI-H1793, NCI-H1792, HCC827, and NCI-H2009, which were known to have p53 mutations. At this time, APR-246 drug-sensitive cell lines and resistant cell lines were distinguished based on z-score normalized IC50 values.

NCI-H1792 = assay: as above; details: NCI-H1792 p53-mutant lung cancer cells, 4 to 5 days, FIG. 7A
Description: as §1, §2, §3, §4

NCI-H1793 = assay: as above; details: NCI-H1793 p53-mutant lung cancer cells, 4 to 5 days, FIG. 7A
Description: as §1, §2, §3, §4

NCI-H2009 = assay: as above; details: NCI-H2009 p53-mutant lung cancer cells, 4 to 5 days, FIG. 7B
Description: as §1, §2, §3, §4

THBS1 mRNA = assay: THBS1 knockdown by shRNA, mRNA level by qRT-PCR; details: lentiviral shRNA, FIG. 8A
Description: HEK 293T cells were used to transfect shRNA targeting THBS1 and an overexpression vector. In addition to shRNA (shTHBS1; […]; SEQ ID NO: 1) and an overexpression vector (pDNA (VB220725-1808zjh); […]. Infected cells were selected using 1 μg/ml of puromycin for at least one week.
(§5) Total RNA was extracted from cells using a total RNA extraction kit from Intron Biotechnology. Genomic DNA was removed by treatment with RNase-free DNase I. Complementary DNA (cDNA) was synthesized using a DiaStar RT kit of Solgent. In addition, RT-PCR was performed using Veriti 96-well Thermal Cycler of Applied Biosystems, and real-time polymerase chain reaction (qRT-PCR) was performed using a QuantStudio 5 real-time PCR system, an SYBR master mix (Genet Bio), and primers.
At this time, when NCI-H1792 and NCI-H1793 cell lines, lung cancer cell lines with drug resistance to APR-246, were treated with THBS1-targeting shRNA (SEQ ID NO: 1; […]) as a THBS1 inhibitor, the THBS1 mRNA expression level was reduced (FIG. 8A). In addition, when THBS1 was overexpressed in NCI-H2009 and HCC827, lung cancer cell lines with high drug responsiveness to APR-246, it was confirmed that the THBS1 mRNA expression level was increased (FIG. 8B).

THBS1 = THBS1 expression after TGF-beta pathway activation in sensitive cell lines; details: two sensitive cell lines, 5 ng/ml TGFβ1 24 hours after seeding, harvested 24 hours later, FIGS. 10D and 10E
Description: as §2, §5

TGFβ1 mRNA = TGFβ1 mRNA expression after TGF-beta pathway activation in sensitive cell lines; details: two sensitive cell lines, 5 ng/ml TGFβ1 24 hours after seeding, harvested 24 hours later, FIGS. 10D and 10E
Description: as §2, §5

COCC1(CO)C(=O)C2CCN1CC2 (centres unmarked) [APR-246]
drug response (cell viability) (HCC827): clear response | drug response (cell viability) (NCI-H1792): hardly responded | drug response (cell viability) (NCI-H1793): hardly responded | drug response (cell viability) (NCI-H2009): clear response

THBS1-targeting shRNA: short hairpin RNA targeting THBS1, GTAGGTTATGATGAGTTTAAT (SEQ ID NO: 1), delivered by lentivirus (guide GUAGGUUAUGAUGAGUUUAAU)
THBS1 mRNA expression level (THBS1 mRNA; NCI-H1792 cells): reduced | THBS1 mRNA expression level (THBS1 mRNA; NCI-H1793 cells): reduced

drug that activated the TGF-beta signaling pathway: TGFβ1 protein from MedChemExpress, used as TGF-beta pathway activator at 5 ng/ml
expression level of THBS1 (THBS1): increased | mRNA expression level of TGFβ1 (TGFβ1 mRNA): increased
